# According to patent publication US11976057B2, “MrgX2 antagonists” (GlaxoSmithKline Intellectual Property Development Limited, priority 2020, dated 2024):
# Biological target: T1, human MRGPRX2 (Homo sapiens, UniProt Q96LB1)
# T1 sequence (Q96LB1 1-330): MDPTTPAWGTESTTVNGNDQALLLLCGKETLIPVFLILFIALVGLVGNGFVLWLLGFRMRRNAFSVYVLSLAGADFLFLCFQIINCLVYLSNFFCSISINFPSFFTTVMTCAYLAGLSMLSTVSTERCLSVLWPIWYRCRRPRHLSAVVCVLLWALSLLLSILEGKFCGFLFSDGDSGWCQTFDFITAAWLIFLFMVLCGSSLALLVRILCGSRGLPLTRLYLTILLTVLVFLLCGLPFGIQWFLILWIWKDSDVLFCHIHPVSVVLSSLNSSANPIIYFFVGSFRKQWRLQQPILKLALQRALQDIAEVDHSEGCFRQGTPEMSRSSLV
# Assay: Ca2+ mobilization assay (FLIPR TETRA): inhibition of Cortistatin-14 mediated MRGPRX2 activation
row,Structure (SMILES),IC50
1,"C[C@@H](C(=O)Nc1ccc(Oc2ccc(F)cn2)cn1)[C@H]1CCC[C@@H](c2cc[n+]([O-])cc2)C1 [Example 287, 4-((1R,3S)-3-((R)-1-((5-((5-fluoropyridin-2-yl)oxy)pyridin-2-yl)amino)-1-oxopropan-2-yl)cyclohexyl)pyridine 1-oxide]",10 to 100 nM
2,"C[C@@H](C(=O)Nc1ccc(Oc2ncc(F)cc2F)cn1)[C@H]1CCC[C@@H](c2cc[n+]([O-])cc2)C1 [Example 290, 4-((1R,3S)-3-((R)-1-((5-((3,5-difluoropyridin-2-yl)oxy)pyridin-2-yl)amino)-1-oxopropan-2-yl)cyclohexyl)pyridine 1-oxide]",10 to 100 nM
3,"C[C@@H](C(=O)Nc1cnc(Oc2ccc(F)cc2)cn1)[C@H]1CCC(F)(F)[C@@H](c2cc[n+]([O-])cc2)C1 [Example 292, 4-((1R,5S)-2,2-difluoro-5-((R)-1-((5-(4-fluorophenoxy)pyrazin-2-yl)amino)-1-oxopropan-2-yl)cyclohexyl)pyridine 1-oxide]",10 to 100 nM

# Now from value to molecule:
row,IC50,Structure (SMILES)
1,≤ 10 nM,"C[C@@H](C(=O)Nc1ccc(Oc2ccc(F)cc2F)cn1)[C@H]1CCC[C@@H](c2cc[n+]([O-])cc2)C1 [Example 289, 4-((1R,3S)-3-((R)-1-((5-(2,4-difluorophenoxy)pyridin-2-yl)amino)-1-oxopropan-2-yl)cyclohexyl)pyridine 1-oxide]"
2,≤ 10 nM,"C[C@@H](C(=O)Nc1ccc(Oc2ccc(F)cc2F)cn1)[C@H]1CCC(F)(F)[C@@H](c2cc[n+]([O-])cc2)C1 [Example 291, 4-((1R,5S)-5-((R)-1-((5-(2,4-difluorophenoxy)pyridin-2-yl)amino)-1-oxopropan-2-yl)-2,2-difluorocyclohexyl)pyridine 1-oxide]"
3,≤ 10 nM,"C[C@@H](C(=O)Nc1ccc(Oc2ncc(F)cc2F)cn1)[C@H]1CCC(F)(F)[C@@H](c2cc[n+]([O-])cc2)C1 [Example 293, 4-((1R,5S)-5-((R)-1-((5-((3,5-difluoropyridin-2-yl)oxy)pyridin-2-yl)amino)-1-oxopropan-2-yl)-2,2-difluorocyclohexyl)pyridine 1-oxide]"
4,≤ 10 nM,"C[C@@H](C(=O)Nc1ccc(Oc2ccc(F)cn2)cn1)[C@H]1CCC(F)(F)[C@@H](c2cc[n+]([O-])cc2)C1 [Example 294, 4-((1R,5S)-2,2-difluoro-5-((R)-1-((5-((5-fluoropyridin-2-yl)oxy)pyridin-2-yl)amino)-1-oxopropan-2-yl)cyclohexyl)pyridine 1-oxide]"
5,≤ 10 nM,"C[C@@H](C(=O)Nc1cnc(Oc2ccc(F)cc2F)cn1)[C@H]1CCC(F)(F)[C@@H](c2cc[n+]([O-])cc2)C1 [Example 295, 4-((1R,5S)-5-((R)-1-((5-(2,4-difluorophenoxy)pyrazin-2-yl)amino)-1-oxopropan-2-yl)-2,2-difluorocyclohexyl)pyridine 1-oxide]"
